Test results taken from US10087242B2 (INSTITUT PASTEUR, priority 2007, dated 2018).

Legend:
Assay type in all cases: binding, mouse
[1] = test system: mIgG C7-37; experiment: inhibition ELISA: oligosaccharide inhibits fixation of mIgG C7-37 on LPS 3a; details: concentration of oligosaccharide giving 50% inhibition of fixation of the mAb on LPS 3a (S. flexneri 3a)
Protocol: (§1) The oligosaccharide determinants recognized by the four mAbs obtained were characterized by measuring, by inhibition ELISA, the interaction of the various oligosaccharides synthesized with these mAbs.
(§2) 1) First, a standard curve OD=f(concentration of the mAb) was established for each antibody.
(§3) For this, purified LPS from S. flexneri 3a was fixed in the wells of ELISA plates (96-well plate), at a concentration of 25 μg/ml in a carbonate buffer pH 9.6, at 4° C., overnight.
(§4) After washing the wells with a solution of PBS/ Tween 20 (0.05%) 1% and a stage of saturation with PBS/BSA 1% for 30 minutes at 4° C., various concentrations of each mAb were incubated for 30 minutes at 4° C. After a washing stage, a secondary antibody coupled to alkaline phosphatase and specific to the mouse IgGs or IgMs was added at a dilution of 1/5000 (Sigma-Aldrich) for 1 h at 37° C. After washing, the enzymatic reaction was carried out with the specific substrate of alkaline phosphatase (12 mg of p-nitrophenylphosphate in 1.2 ml of Tris-HCl buffer 1M (pH 8.8) and 10.8 ml of 5M NaCl). Once the color reaction had developed, the plates were read at 405 nm (Dynatech MR 4000 plate reader). The standard curve OD =f(Ab concentration) was refined with the equation Y=aX2+bX+c, where Y corresponds to the OD and X to the antibody concentration. A correlation factor (r2) of 0.99 was generally obtained.
(§5) 2) The concentration of oligosaccharide capable of inhibiting 50% of the fixation of the mAb on LPS 3a was then determined as follows.
(§6) Each mAb was used at a given concentration, defined as the first concentration tested giving a maximum OD on the standard curve (the first point at the start of the plateau of the curve). Various concentrations of each of the oligosaccharides to be tested were then incubated separately with the mAb at constant concentration, overnight at 4° C., in 1% PBS-BSA buffer. Measurement of the free antibody concentration was carried out as stated above, after incubation of the mAb/oligosaccharide mixtures at 4° C. for 30 minutes on plates covered with LPS 3a and using the standard curve obtained in parallel on the same plate. For each mAb and each oligosaccharide, a value called IC50 was then calculated, corresponding to the concentration of oligosaccharide permitting 50% inhibition of the fixation of the mAb on LPS 3a.

[2] = test system: mIgG G7-12; experiment: inhibition ELISA: oligosaccharide inhibits fixation of mIgG G7-12 on LPS 3a; details: concentration of oligosaccharide giving 50% inhibition of fixation of the mAb on LPS 3a (S. flexneri 3a)
Protocol: as §1, §2, §3, §4, §5, §6

[3] = test system: IgM (G 19-2); experiment: inhibition ELISA: oligosaccharide inhibits fixation of IgM G19-2 on LPS 3a; details: concentration of oligosaccharide giving 50% inhibition of fixation of the mAb on LPS 3a (S. flexneri 3a), inhibition ELISA
Protocol: Protocol 2) Ten Balb/C mice and four BP2 mice were immunized by i.p. injection with virulent live bacteria of the strain S. flexneri 3a, every three weeks, using 2×10^6 bacteria for the first 2 immunizations and 5×10^6 for the next 4. As the anti-LPS 3a antibody response was too weak for performing cellular fusion, an additional series of 4 injections was carried out. Two mAbs of type IgM, G19-2 and L18-9, were obtained.
as §1, §2, §3, §4, §5, §6

Row | Molecule | IC50 [1] [µM] | IC50 [2] [µM] | IC50 [3] [µM]
1 | CCCO[C@@H]1O[C@H](CO)[C@@H](O)[C@H](O[C@@H]2O[C@@H](C)[C@H](O)[C@@H](O[C@@H]3O[C@@H](C)[C@H](O)[C@@H](O)[C@H]3O[C@@H]3O[C@@H](C)[C@H](O)[C@@H](O[C@H]4O[C@H](CO)[C@@H](O)[C@H](O)[C@H]4O)[C@H]3O)[C@H]2O)[C@H]1NC(C)=O [EABCD-OPr, Propyl α-D-glucopyranosyl-(1→3)-α-L-rhamnopyranosyl-(1→2)-α-L-rhamnopyranosyl-(1→3)-α-L-rhamnopyranosyl-(1→3)-2-acetamido-2-deoxy-β-D-glucopyranoside] | > 1000 | > 2500 | > 2500
2 | Propyl (2/3-O-acetyl-α-L-rhamnopyranosyl)-(1→3)-(2-acetamido-2-deoxy-β-D-glucopyranosyl)-(1→2)-(α-D-glucopyranosyl-(1→3)-α-L-rhamnopyranoside [C(2-OAc)DEA-OPr] | > 5000 | > 2500 | > 2500
